Laboratory results taken from patent publication US20250197382A1, “KIF18A INHIBITOR” (WIGEN BIOMEDICINE TECHNOLOGY (SHANGHAI) CO., LTD., priority 2022, published 2025).

target: Recombinant human KIF18A (1-467His-tagged) protein (Homo sapiens (Human), UniProt Q8NI77); experiment: KIF18A enzyme assay (microtubule-stimulated ATPase activity, ADP-Glo); type: biochemical; conditions: 30 nM KIF18A, ATP 75 μM, read-out: inhibitory activity against KIF18A IC50
Summary of the method: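 Baculovirus-expressed human KIF18A (1-467, His-tagged; 30 nM) preincubated 15 min at room temperature with compound (22-point 2-fold series) in pH 7.5 Tris buffer containing 30 μg/mL pig microtubules and 1 μM paclitaxel.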

Recombinant human KIF18A (1-467His-tagged) protein, sequence (Q8NI77 1-467): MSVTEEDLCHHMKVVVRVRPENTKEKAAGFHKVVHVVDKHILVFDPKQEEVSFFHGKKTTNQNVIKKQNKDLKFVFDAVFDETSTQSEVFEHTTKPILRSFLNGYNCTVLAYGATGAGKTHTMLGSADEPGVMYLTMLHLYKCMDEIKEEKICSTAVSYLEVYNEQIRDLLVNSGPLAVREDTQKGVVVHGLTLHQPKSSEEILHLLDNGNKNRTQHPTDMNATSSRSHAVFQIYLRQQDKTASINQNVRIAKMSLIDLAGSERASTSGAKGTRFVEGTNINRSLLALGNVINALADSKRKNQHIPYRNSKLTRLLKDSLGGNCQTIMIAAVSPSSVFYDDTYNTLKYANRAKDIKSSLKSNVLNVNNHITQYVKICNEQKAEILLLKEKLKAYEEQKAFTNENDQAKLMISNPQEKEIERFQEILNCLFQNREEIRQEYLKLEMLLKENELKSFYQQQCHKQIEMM
Recombinant human KIF18A (1-467His-tagged) protein, sequence (P02550 whole entry partner): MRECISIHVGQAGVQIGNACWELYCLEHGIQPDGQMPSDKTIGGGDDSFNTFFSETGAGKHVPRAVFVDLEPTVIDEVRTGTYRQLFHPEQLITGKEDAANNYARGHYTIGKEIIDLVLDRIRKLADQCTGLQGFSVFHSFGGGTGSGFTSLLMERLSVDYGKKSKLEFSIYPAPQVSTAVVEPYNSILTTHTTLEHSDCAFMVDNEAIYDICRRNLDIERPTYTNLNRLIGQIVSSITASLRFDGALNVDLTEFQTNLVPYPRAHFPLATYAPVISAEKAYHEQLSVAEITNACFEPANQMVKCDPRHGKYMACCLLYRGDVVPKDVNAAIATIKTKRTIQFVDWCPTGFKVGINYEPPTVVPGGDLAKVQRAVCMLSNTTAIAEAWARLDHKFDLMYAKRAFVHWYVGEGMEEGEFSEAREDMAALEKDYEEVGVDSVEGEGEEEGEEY
Recombinant human KIF18A (1-467His-tagged) protein, sequence (P02554 whole entry partner): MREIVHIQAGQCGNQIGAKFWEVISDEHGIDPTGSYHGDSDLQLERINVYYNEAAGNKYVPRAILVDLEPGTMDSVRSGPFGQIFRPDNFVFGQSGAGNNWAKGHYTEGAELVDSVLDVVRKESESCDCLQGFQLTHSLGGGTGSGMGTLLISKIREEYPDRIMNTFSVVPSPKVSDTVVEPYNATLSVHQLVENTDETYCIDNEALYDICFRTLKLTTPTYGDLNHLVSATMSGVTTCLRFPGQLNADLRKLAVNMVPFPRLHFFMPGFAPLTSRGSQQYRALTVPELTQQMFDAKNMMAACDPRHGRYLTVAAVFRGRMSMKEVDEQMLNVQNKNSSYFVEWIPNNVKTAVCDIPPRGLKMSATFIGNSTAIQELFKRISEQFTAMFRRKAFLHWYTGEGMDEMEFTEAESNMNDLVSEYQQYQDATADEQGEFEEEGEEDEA

IC50	Structure (SMILES)
≤ 100 nM	O=C(Nc1cc2ccoc2c(N2CCOCC2)n1)c1ccc(S(=O)(=O)NCCO)cc1N1CCC2(CC1)CC2 [Compound 220]
≤ 100 nM	C[C@H](CO)S(=O)(=O)Nc1ccc(NC(=O)c2cc3c(c(N4CCC(F)(F)CC4)c2)OCC3)c(N2CCC3(CC2)CC3)c1 [Compound 46]
≤ 100 nM	CN1CCc2cc(NC(=O)c3ccc(NS(=O)(=O)CCO)cc3N3CCC4(CC3)CC4)cc(N3CCC(F)CC3)c21 [Compound 265]
≤ 100 nM	Cn1ccc2cc(NC(=O)c3ccc(S(=O)(=O)NCCO)cc3N3CCC4(CC3)CC4)nc(N3CCC(F)(F)CC3)c21 [Compound 465]
≤ 100 nM	Cn1ccc2cc(C(=O)Nc3ccc(S(=O)(=O)NCCO)cc3N3CCC4(CC3)CC4)cc(N3CCC(C)(F)C3)c21 (centres unmarked) [Compound 440]
≤ 100 nM	O=C(Nc1ccc(NS(=O)(=O)CCO)cc1N1CCC2(CC1)CC2)c1cc(OCCC(F)(F)F)c2occc2c1 [Compound 165]
≤ 100 nM	C[C@@H](CO)NS(=O)(=O)c1ccc(C(=O)Nc2cc3ccn(C)c3c(N3CCC(F)(F)CC3)n2)c(N2CCC3(CC2)CC3)c1 [Compound 477]
≤ 100 nM	Cn1ccc2cc(C(=O)Nc3ccc(NS(=O)(=O)CCO)cc3N3CCC4(CC3)CC4)cc(N3CCC(C)(F)C3)c21 (centres unmarked) [Compound 424]
≤ 100 nM	CN1CCc2cc(C(=O)Nc3ccc(S(=O)(=O)NCCO)cc3N3CCC4(CC3)CC4)cc(N3CC4CC4C3)c21 (centres unmarked) [Compound 314]
≤ 100 nM	CN1CCc2cc(C(=O)Nc3ccc(S(=O)(=O)NCCO)cc3N3CCC4(CC3)CC4)nc(N3CC(F)(F)C3)c21 [Compound 372]
≤ 100 nM	C[C@@H](CO)S(=O)(=O)Nc1ccc(NC(=O)c2cc3ccoc3c(N3CCC(F)(F)CC3)n2)c(N2CCC3(CC2)CC3)c1 [Compound 237]
≤ 100 nM	C[C@H]1CN(c2cc(NC(=O)c3ccc(S(=O)(=O)NCCO)cc3N3CCC4(CC3)CC4)cc3c2N(C)CC3)CCO1 [Compound 275]
≤ 100 nM	CN1CCc2cc(NC(=O)c3ccc(S(=O)(=O)NCCO)cc3N3CCC4(CC3)CC4)nc(N3CC4CC4C3)c21 (centres unmarked) [Compound 346]
≤ 100 nM	CN1CCc2cc(NC(=O)c3ccc(S(=O)(=O)NCCO)cc3N3CCC4(CC3)CC4)cc(N3CCC(C)(F)C3)c21 (centres unmarked) [Compound 280]
≤ 100 nM	O=C(Nc1cc2ccoc2c(N2CCC3(CC3)C2)n1)c1ccc(NS(=O)(=O)CCO)cc1N1CCC2(CC1)CC2 [Compound 198]
≤ 100 nM	Cn1ccc2cc(NC(=O)c3ccc(NS(=O)(=O)CCO)cc3N3CCC4(CC3)CC4)cc(N3CCC(F)CC3)c21 [Compound 393]
≤ 100 nM	C[C@@H](CO)S(=O)(=O)Nc1ccc(C(=O)Nc2cc3ccoc3c(N3CCC(F)(F)CC3)n2)c(N2CCC3(CC2)CC3)c1 [Compound 205]
≤ 100 nM	C[C@@H]1CN(c2nc(C(=O)Nc3ccc(NS(=O)(=O)[C@H](C)CO)cc3N3CCC4(CC3)CC4)cc3ccoc23)CCO1 [Compound 240]
≤ 100 nM	O=C(Nc1ccc(NS(=O)(=O)CCO)cc1N1CCC2(CC1)CC2)c1cc2c(c(N3CCC(F)CC3)n1)OCC2 [Compound 105]
100 to 500 nM	O=C(Nc1cc(N2CCC(F)(F)CC2)c2ccccc2c1)c1ccc(NS(=O)(=O)CCO)cc1N1CCC2(CC1)CC2 [Compound 529]
≤ 100 nM	O=C(Nc1ccc(S(=O)(=O)NCCO)cc1N1CCC2(CC1)CC2)c1cc(OC2CCC2)c2occc2c1 [Compound 183]
≤ 100 nM	O=C(Nc1ccc(S(=O)(=O)NCCO)cc1N1CCC2(CC1)CC2)c1cc2ccoc2c(OC2CCC2)n1 [Compound 247]
≤ 100 nM	O=C(Nc1cc2c(c(N3CCC(F)CC3)n1)OCC2)c1ccc(S(=O)(=O)NCCO)cc1N1CCC2(CC1)CC2 [Compound 89]
≤ 100 nM	O=C(Nc1ccc(NS(=O)(=O)CCO)cc1N1CCC2(CC1)CC2)c1cc2c(c(OCCC(F)(F)F)n1)OCC2 [Compound 101]

IC50	Structure (SMILES)
≤ 100 nM	C[C@@H](CO)NS(=O)(=O)c1ccc(NC(=O)c2cc3c(c(N4CCC(F)(F)CC4)c2)N(C)CC3)c(N2CCC3(CC2)CC3)c1 [Compound 317]
≤ 100 nM	O=C(Nc1ccc(NS(=O)(=O)CCO)cc1N1CCC2(CC1)CC2)c1cc2c(c(N3CCC4(CC4)C3)n1)OCC2 [Compound 102]
≤ 100 nM	O=C(Nc1cc2c(c(N3CCC(F)(F)CC3)c1)OCCO2)c1ccc(NS(=O)(=O)CCO)cc1N1CCC2(CC1)CC2 [Compound 543]
≤ 100 nM	C[C@H](CO)NS(=O)(=O)c1ccc(C(=O)Nc2cc3c(c(N4CCC(F)(F)CC4)c2)N(C)CC3)c(N2CCC3(CC2)CC3)c1 [Compound 286]
≤ 100 nM	O=C(Nc1cc2ccoc2c(N2CC3CC3C2)n1)c1ccc(NS(=O)(=O)CCO)cc1N1CCC2(CC1)CC2 (centres unmarked) [Compound 202]
≤ 100 nM	Cn1ccc2cc(NC(=O)c3ccc(NS(=O)(=O)CCO)cc3N3CCC4(CC3)CC4)cc(OC3CCC3)c21 [Compound 391]
≤ 100 nM	CN1CCc2cc(NC(=O)c3ccc(S(=O)(=O)NCCO)cc3N3CCC4(CC3)CC4)cc(N3CC4CC4C3)c21 (centres unmarked) [Compound 282]
≤ 100 nM	CC(C)(CO)Nc1nc(NC(=O)c2ccc(NS(=O)(=O)CCO)cc2N2CCC3(CC2)CC3)cc2c1OCC2 [Compound 75]
≤ 100 nM	O=C(Nc1ccc(S(=O)(=O)NCCO)cc1N1CCC2(CC1)CC2)c1cc2ccoc2c(OCCC(F)(F)F)n1 [Compound 245]
≤ 100 nM	CN1CCc2cc(NC(=O)c3ccc(NS(=O)(=O)CCO)cc3N3CCC4(CC3)CC4)cc(N3CC4CC4C3)c21 (centres unmarked) [Compound 266]
≤ 100 nM	Cn1ccc2cc(C(=O)Nc3ccc(NS(=O)(=O)CCO)cc3N3CCC4(CC3)CC4)cc(N3CCC(F)(F)CC3)c21 [Compound 417]
≤ 100 nM	CC(C)(CO)Nc1cc(C(=O)Nc2ccc(S(=O)(=O)NCCO)cc2N2CCC3(CC2)CC3)cc2c1OCC2 [Compound 59]
≤ 100 nM	O=C(Nc1cc2ccnn2c(N2CCC(F)(F)CC2)n1)c1ccc(NS(=O)(=O)CCO)cc1N1CCC2(CC1)CC2 [Compound 534]
≤ 100 nM	O=C(Nc1ccc(S(=O)(=O)NCCO)cc1N1CCC2(CC1)CC2)c1cc2ccoc2c(N2CC(F)(F)C2)n1 [Compound 244]
≤ 100 nM	CN1CCc2cc(C(=O)Nc3ccc(NS(=O)(=O)CCO)cc3N3CCC4(CC3)CC4)nc(N3CCOCC3)c21 [Compound 364]
≤ 100 nM	O=C(Nc1cc(N2CCC3(CC3)C2)c2occc2c1)c1ccc(NS(=O)(=O)CCO)cc1N1CCC2(CC1)CC2 [Compound 134]
≤ 100 nM	C[C@@H](CO)NS(=O)(=O)c1ccc(NC(=O)c2cc3c(c(N4CCC(F)(F)CC4)n2)OCC3)c(N2CCC3(CC2)CC3)c1 [Compound 125]
≤ 100 nM	O=C(Nc1ccc(S(=O)(=O)NCCO)cc1N1CCC2(CC1)CC2)c1cc2ccoc2c(N2CCC(F)(F)CC2)n1 [Compound 241]
≤ 100 nM	O=C(Nc1ccc(NS(=O)(=O)CCO)cc1N1CCC2(CC1)CC2)c1cc2c(c(N3CC(F)(F)C3)n1)OCC2 [Compound 100]
≤ 100 nM	C[C@@H](CO)NS(=O)(=O)c1ccc(C(=O)Nc2cc3ccoc3c(N3CCC(F)(F)CC3)n2)c(N2CCC3(CC2)CC3)c1 [Compound 221]
≤ 100 nM	Cn1ccc2cc(NC(=O)c3ccc(NS(=O)(=O)CCO)cc3N3CCC4(CC3)CC4)cc(N3CCC4(CC4)C3)c21 [Compound 390]
≤ 100 nM	Cn1ccc2cc(NC(=O)c3ccc(S(=O)(=O)NCCO)cc3N3CCC4(CC3)CC4)nc(N3CCOCC3)c21 [Compound 476]
≤ 100 nM	C[C@H]1CN(c2nc(NC(=O)c3ccc(NS(=O)(=O)CCO)cc3N3CCC4(CC3)CC4)cc3ccn(C)c23)CCO1 [Compound 451]
